From ChEMBL document CHEMBL5230131, “Modern trends in diuretics development” (Eur J Med Chem, 2020) come the findings set out here.

For assay [1], the target named is T1, Aquaporin-1 (Homo sapiens, UniProt P29972).
T1 sequence (P29972 whole entry): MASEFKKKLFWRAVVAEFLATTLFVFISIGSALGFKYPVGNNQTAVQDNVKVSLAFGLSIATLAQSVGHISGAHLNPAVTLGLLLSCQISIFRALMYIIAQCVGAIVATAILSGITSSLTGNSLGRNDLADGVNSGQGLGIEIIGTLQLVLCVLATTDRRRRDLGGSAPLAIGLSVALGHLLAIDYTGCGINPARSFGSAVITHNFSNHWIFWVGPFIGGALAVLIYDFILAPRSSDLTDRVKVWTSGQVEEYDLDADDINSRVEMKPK
Briefly: Inhibition of human AQP1 water channel expressed in Xenopus laevis oocytes assessed as inhibition of AQP1-mediated osmotic swelling incubated for 1 to 2 hrs by videomicroscopy analysis. It counts as cell-based, Oocyte.

A further assay concerns the target Aquaporin-4 (Rattus norvegicus, UniProt P47863). Kind of assay: Inhibition of rat AQP4 water channel expressed in Xenopus laevis oocytes assessed as inhibition of […] osmotic swelling incubated for 1 to 2 hrs by videomicroscopy analysis. The format is cell-based, Oocyte.
Assay [2] deals with T1, Aquaporin-1. Briefly: Inhibition of human AQP1 water channel expressed in CHO cells incubated for 10 mins by FLIPR Tetra assay. The format is cell-based.
In assay [3] the target is T2, Solute carrier family 12 member 2 (Homo sapiens, UniProt P55011).
T2 sequence (P55011 whole entry): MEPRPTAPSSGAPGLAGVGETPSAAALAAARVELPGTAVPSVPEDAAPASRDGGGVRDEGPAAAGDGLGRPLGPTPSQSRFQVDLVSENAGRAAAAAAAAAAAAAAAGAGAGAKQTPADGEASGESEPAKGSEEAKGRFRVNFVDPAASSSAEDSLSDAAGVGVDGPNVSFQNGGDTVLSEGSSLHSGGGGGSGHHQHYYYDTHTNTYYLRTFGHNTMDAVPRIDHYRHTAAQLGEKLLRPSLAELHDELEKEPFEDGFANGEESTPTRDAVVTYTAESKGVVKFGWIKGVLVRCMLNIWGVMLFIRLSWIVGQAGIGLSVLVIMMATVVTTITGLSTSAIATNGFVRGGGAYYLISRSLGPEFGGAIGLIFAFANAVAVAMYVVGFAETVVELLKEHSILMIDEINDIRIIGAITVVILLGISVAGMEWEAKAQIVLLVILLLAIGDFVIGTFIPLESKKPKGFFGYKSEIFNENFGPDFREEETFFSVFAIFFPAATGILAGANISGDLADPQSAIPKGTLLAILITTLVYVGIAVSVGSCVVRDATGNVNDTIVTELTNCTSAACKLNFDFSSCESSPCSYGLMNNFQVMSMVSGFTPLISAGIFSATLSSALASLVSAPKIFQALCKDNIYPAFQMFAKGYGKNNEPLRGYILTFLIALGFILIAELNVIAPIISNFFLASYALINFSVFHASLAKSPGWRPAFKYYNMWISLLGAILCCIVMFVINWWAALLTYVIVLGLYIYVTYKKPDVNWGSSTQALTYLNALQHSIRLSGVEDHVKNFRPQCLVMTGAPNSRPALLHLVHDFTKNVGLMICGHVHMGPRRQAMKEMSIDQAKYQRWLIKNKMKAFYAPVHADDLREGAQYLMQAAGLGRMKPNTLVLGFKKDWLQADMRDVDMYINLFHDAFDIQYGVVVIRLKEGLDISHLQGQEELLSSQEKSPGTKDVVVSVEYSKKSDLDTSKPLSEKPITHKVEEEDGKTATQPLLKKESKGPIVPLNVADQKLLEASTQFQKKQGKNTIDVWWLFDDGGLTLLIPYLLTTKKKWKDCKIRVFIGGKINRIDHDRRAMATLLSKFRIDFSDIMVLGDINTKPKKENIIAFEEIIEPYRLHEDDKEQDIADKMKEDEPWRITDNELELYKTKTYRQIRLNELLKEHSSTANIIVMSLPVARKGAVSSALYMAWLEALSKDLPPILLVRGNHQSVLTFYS
Briefly: Inhibition of NKCC1 in human HT-29 cells assessed as inhibition of rubidium uptake incubated for 20 min by atomic absorption spectroscopy. The format is cell-based.

In assay [4] the target is T3, Pendrin (Mus musculus, UniProt Q9R155).
T3 sequence (Q9R155 whole entry): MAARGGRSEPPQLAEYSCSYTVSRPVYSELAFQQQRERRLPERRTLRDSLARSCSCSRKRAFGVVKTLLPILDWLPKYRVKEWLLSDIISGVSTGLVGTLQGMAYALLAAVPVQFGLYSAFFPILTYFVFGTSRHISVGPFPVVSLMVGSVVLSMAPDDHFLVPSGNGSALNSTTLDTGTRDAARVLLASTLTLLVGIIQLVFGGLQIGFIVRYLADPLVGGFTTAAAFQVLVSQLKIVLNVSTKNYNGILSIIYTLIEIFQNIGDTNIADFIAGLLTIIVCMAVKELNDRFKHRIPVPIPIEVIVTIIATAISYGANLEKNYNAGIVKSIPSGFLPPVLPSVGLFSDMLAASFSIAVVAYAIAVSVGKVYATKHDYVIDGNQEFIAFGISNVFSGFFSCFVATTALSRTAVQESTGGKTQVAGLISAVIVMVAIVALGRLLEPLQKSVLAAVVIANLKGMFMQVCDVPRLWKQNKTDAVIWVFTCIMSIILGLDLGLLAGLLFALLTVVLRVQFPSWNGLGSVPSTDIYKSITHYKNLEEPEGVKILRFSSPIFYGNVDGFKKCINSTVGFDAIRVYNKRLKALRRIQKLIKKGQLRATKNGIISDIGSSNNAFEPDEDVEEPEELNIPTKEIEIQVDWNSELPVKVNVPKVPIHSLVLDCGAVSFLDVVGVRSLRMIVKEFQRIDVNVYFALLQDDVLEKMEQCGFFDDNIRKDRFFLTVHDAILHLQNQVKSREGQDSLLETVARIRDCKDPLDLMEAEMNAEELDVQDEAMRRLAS
Kind of assay: Inhibition of mouse Pendrin stably expressed in FRT cells with YFP assessed as inhibition of pendrin mediated Cl-/SCN- exchange by fluorescence assay. It counts as cell-based.

Assay [5] deals with T3, Pendrin. Kind of assay: Inhibition of mouse Pendrin stably expressed in FRT cells with YFP assessed as inhibition of pendrin mediated Cl-/NO3- exchange by fluorescence assay. The format is cell-based.
Assay [6] addresses T3, Pendrin. Kind of assay: Inhibition of mouse Pendrin stably expressed in FRT cells with YFP assessed as inhibition of pendrin mediated Cl-/HCO3- exchange by fluorescence assay. The format is cell-based.
In assay [7] the test system is Mus musculus. Briefly: Diuretic activity in CD-1 mouse assessed as increase in urine volume at 10 to 50 mg/kg,ip with short term administration of furosemide measured after 3 hrs. The format is functional. Particulars: dose 10-50 mg/kg.
Assay [8] has as its system Mus musculus. Briefly: Diuretic activity in C57BL/6 mouse assessed as increase in urine volume at 10 to 50 mg/kg,ip with short term administration of furosemide measured after 3 hrs. The format is functional. The following applies: dose 10-50 mg/kg.
The subject of assay [9] is Mus musculus. Kind of assay: Diuretic activity in CD-1 mouse assessed as increase in urine volume at 20 mg/kg,ip with long term administration of furosemide measured after 3 hrs. The format is functional.
Assay [10] has as its system Mus musculus. Kind of assay: Diuretic activity in C57BL/6 mouse assessed as increase in urine volume at 20 mg/kg,ip with long term administration of furosemide measured after 3 hrs. It counts as functional.
Assay [11] has as its target T4, Urea transporter 1 (Rattus norvegicus, UniProt P97689).
T4 sequence (P97689 whole entry): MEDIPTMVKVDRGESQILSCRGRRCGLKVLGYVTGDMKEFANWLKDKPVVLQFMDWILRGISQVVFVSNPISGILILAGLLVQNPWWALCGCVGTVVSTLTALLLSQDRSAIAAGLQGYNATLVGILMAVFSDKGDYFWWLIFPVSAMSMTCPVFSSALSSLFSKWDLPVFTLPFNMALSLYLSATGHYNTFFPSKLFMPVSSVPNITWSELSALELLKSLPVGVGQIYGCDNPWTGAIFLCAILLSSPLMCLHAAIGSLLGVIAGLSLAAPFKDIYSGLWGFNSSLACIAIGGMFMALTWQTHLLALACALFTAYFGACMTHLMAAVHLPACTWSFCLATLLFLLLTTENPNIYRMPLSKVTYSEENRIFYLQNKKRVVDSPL
Briefly: Inhibition of UT-B in rat erythrocyte by stopped-flow light scattering assay. The format is cell-based.

Assay [12] has as its target T1, Aquaporin-1. Briefly: Inhibition of AQP1 water channel in human erythrocyte by stopped-flow spectrometry. The format is cell-based.
Assay [13] concerns the target T4, Urea transporter 1. Briefly: Inhibition of rat UT-B expressed in MDCK cells assessed as inhibition of urea transport incubated for 30 mins. It counts as cell-based.
Assay [14] can be described thus: Inhibition of rat UT-A1 expressed in MDCK cells assessed as inhibition of urea transport incubated for 30 mins. The format is cell-based.
Assay [15] in a line: Anti-inflammatory activity in rat FRT cells assessed as inhibition of IL-4 stimulation of Cl-/SCN- exchange at 100 uM. It counts as functional.
The nature of assay [16]: Anti-inflammatory activity in Normal human bronchial epithelial cell assessed as inhibition of IL-4 stimulation of Cl-/SCN- exchange at 100 uM. It counts as functional.
The target in assay [17] is T1, Aquaporin-1. Kind of assay: Agonist activity at human AQP1 water channel expressed in Xenopus laevis oocytes assessed as inhibition of AQP1-mediated osmotic swelling. The format is cell-based, Oocyte.
Assay [18] in a line: Inhibition of human full-length GST-tagged SPAK T233E mutant expressed in Escherichia coli BL21 (DE3) incubated for 30 min in presence of ATP by HTS based ADP-Glo kinase assay.
Assay [19] addresses T5, Urea transporter 1 (Mus musculus, UniProt Q8VHL0).
T5 sequence (Q8VHL0 whole entry): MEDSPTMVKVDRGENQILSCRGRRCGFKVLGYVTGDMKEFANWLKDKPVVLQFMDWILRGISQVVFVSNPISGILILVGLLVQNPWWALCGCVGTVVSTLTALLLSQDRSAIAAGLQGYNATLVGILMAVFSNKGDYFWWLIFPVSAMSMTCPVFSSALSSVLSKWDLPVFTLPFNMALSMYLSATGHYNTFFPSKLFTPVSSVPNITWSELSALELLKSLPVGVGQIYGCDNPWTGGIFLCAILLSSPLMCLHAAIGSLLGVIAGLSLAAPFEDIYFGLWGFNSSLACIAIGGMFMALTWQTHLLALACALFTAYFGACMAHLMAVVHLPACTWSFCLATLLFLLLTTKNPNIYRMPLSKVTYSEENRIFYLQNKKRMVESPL
Briefly: Inhibition of UT-B in mouse erythrocyte incubated for 10 mins by stopped-flow light scattering assay. The format is cell-based.

Assay [20] is described as follows: Inhibition of UT-B in human erythrocyte incubated for 10 mins by stopped-flow light scattering assay. The format is cell-based.
Assay [21] addresses T5, Urea transporter 1. Briefly: Inhibition of UT-B in mouse erythrocyte. The format is cell-based.

pEC50, pIC50: −log10 of the molar value. Some results are limits rather than exact numbers.

Aquaporin-4, sequence (P47863 whole entry): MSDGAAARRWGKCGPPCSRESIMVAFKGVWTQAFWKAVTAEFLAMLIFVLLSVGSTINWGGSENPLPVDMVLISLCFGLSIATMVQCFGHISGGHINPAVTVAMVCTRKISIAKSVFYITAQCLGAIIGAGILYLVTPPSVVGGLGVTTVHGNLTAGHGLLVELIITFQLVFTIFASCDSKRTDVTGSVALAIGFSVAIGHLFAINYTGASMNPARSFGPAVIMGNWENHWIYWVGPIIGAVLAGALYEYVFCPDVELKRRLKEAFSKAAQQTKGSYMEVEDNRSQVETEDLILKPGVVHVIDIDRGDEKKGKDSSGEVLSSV

For the molecule `CCCCNc1cc(C(=O)Nc2ccncc2)cc(S(N)(=O)=O)c1Oc1ccccc1`, the pIC50 on Aquaporin-1 [1] and at Aquaporin-4 was 4.70 throughout.
As to `Nc1nc(NCC2CCC(CNS(=O)(=O)c3cccc4ccccc34)CC2)nc2ccccc12` (configuration not stated), the pIC50 (as a rule, the negative decadic logarithm of the IC50, by convention in mol/L) against Aquaporin-1 [2] is 5.57.
Regarding `CNc1nc(-c2ccc3c(c2)CCN3C(=O)c2ccccc2OCc2ccc(Cl)cc2)cs1`, the pIC50 in [3] is 6.62.
The molecule `Nc1nc(NCC2CCC(CNS(=O)(=O)c3cccc4c(Cl)cccc34)CC2)nc2ccccc12` (configuration not stated) had a pIC50 at Aquaporin-1 [2] of 5.24.
With `Cc1n[nH]c(-c2cc(S(=O)(=O)NC3CCCc4ccccc43)c(C)s2)c1C` (configuration not stated), the pIC50 at Pendrin [4] was 5.05; on Pendrin [5], 5.30; at Pendrin [6], 5.00. The Activity with Mus musculus [7] was 30%; in the assay with Mus musculus [8] it was 30%; in the assay on Mus musculus [9], 60%; with Mus musculus [10], 60%.
`CC(=O)c1sc2nc3ccc(C)cc3cc2c1N` showed a pIC50 against Urea transporter 1 [11] of 6.10.
`CCN1CCC(O)(/C=C/c2ccc(C)cc2)C(C(=O)/C=C/c2ccc(C)cc2)C1` (configuration not stated): the pEC50 (as a rule, −log10 of the EC50, conventionally taken in molar units) at Aquaporin-1 [12] was 4.70.
For `S=C(NCc1ccc2c(c1)OCO2)Nc1ccc2nsnc2c1`, at Aquaporin-1 [1], the pIC50 was 4.76.
As to `COC(=O)c1sc2nc3ccc(OC)cc3cc2c1N`, the figures for the pIC50 (at Urea transporter 1 [13]; in [14]) were 6.05 and 6.49, respectively.
Consider `CN(C)CCOC1(Cc2ccc(F)cc2)CCC(C(C)(C)C)CC1` (configuration not stated), for which, at Aquaporin-1 [12], the pEC50 is 4.32.
As for `O=C(O)c1cccnc1Nc1cccc(C(F)(F)F)c1` [NIFLUMIC ACID], the inhibition at 100 µM in [15] and in assay [16] was under 40% in each case.
As for `CCCCNc1cc(C(=O)O)cc(S(N)(=O)=O)c1Oc1ccccc1` [BUMETANIDE], the pIC50 was 5.81 in assay [3] and 4.00 at Aquaporin-4.
Regarding `COC(=O)c1cc(S(=O)(=O)NCc2ccccc2)c(Cl)cc1NCc1ccco1`, the pEC50 on Aquaporin-1 [17] was 5.48.
For VERTEPORFIN, in assay [18], the pIC50 is 6.70.
Turning to `COc1ccc(Nc2nnc(-c3ccc(C)c(S(C)(=O)=O)c3)c3ccccc23)cc1`, the pIC50 at Urea transporter 1 [19] is 6.16; in assay [20], 7.70; at Urea transporter 1 [21], 5.79.
